From patent publication US20260144766A1, “USE OF CANNABINOID 1 RECEPTOR AGONIST ARACHIDONOYL CYCLOPROPYLAMIDE (ACPA) IN NON SMALL CELL LUNG CANCER” (HACETTEPE UNIVERSITESI, priority 2019, published 2026)
Entries after “also recorded” stand apart in the source; their conditions may differ.

Tests used:
A549 cells [1] = test: WST-1 proliferation analysis, A549; format: cell-based
Description: (§1) 1.2. Evaluation of the Dose- and Time-Dependent Effect of ACPA to Cancer Cell Proliferation by WST-1 Technique

H358 cells [2] = test: WST-1 proliferation analysis, H358; format: cell-based; conditions: p<0.05
Description: as §1

H358 cells [3] = test: Real time impedance-based proliferation analysis, H358; format: cell-based
H1299 cells [4] = test: WST-1 proliferation analysis, H1299; format: cell-based; conditions: all doses, days 1, 2 and 3, p<0.05
Description: as §1

H1299 cells [5] = test: Real time impedance-based proliferation analysis, H1299; format: cell-based
Protocol: (§2) 1.3. Evaluation of the Effect of ACPA against Cancer Cell Proliferation by Real Time Impedance-Based Proliferation Analysis
(§3) ACPA has been applied between this dose range (10^−9, 10^−10, 10^−11 and 10^−12 M) during the real time impedance-based proliferation analysis. After the cells are seeded when the cell indices reach 1.0, ACPA dose range has been applied. The graph has been normalized from the point where the cell indices reached 1.0 and ACPA application has been carried out at different doses. […] After ACPA has been added at the determined dose range, it has led to reduction in the proliferation of H1299 cells as of the 66th hour.

H838 cells [6] = test: WST-1 proliferation analysis, H838; format: cell-based; conditions: p<0.05
Description: as §1

A549 cells [7] = test: Real time impedance-based proliferation analysis, A549; format: cell-based
Protocol: as §2, §3

H838 cells [8] = test: Real time impedance-based proliferation analysis, H838; format: cell-based
Protocol: as §2, §3

[9] = test system: A549, H1299, H358 and H838 cells; test: Efficient dose range over the 4 non-small cell lung cancer lines (WST-1 and real time impedance-based analysis); conditions: 4 cell lines A549, H1299, H358 and H838
Protocol: as §3
Within the scope of the research, the efficient dose and time of the CB1 receptor agonist ACPA has been calculated using the WST-1 and real time impedance-based proliferation analysis method on the examined 4 different non-small cell lung cancer lines.

[10] = dose ranges applied, depending on time
[11] = normalized cell index vs log ACPA concentration, read-out: antiproliferative IC50

CCCCC/C=C\C/C=C\C/C=C\C/C=C\CCCC(=O)NC1CC1 [ACPA, Arachidonoyl cyclopropylamide]
proliferation vs control group (WST-1 absorbance) (A549 cells [1]; day 1, doses 10^−12, 10^−11, 10^−10 and 10^−9 M, p<0.05): statistically significantly reduced
antiproliferative effect (WST-1) (A549 cells [1]; second and 3rd days, doses applied): antiproliferative effect was not observed
antiproliferative effect (WST-1) (H358 cells [2]; 2nd day, all doses): Antiproliferative effect was seen
antiproliferative effect (WST-1) (H358 cells [2]; day 1, doses 10^−10, 10^−8, 10^−7 and 10^−6 M): antiproliferative effect of ACPA was observed
efficient dose, effect seen on the 48th hour (H358 cells [3]; WST-1 and impedance analysis): 1.39 pM
proliferation (normalized cell index) (H358 cells [3]; [10]): reduced the proliferation
IC50 (H358 cells [3]; [11]): 1.38 pM
antiproliferative effect (WST-1) (H1299 cells [4]): significant antiproliferative effect; also recorded: Antiproliferative effect has been observed
proliferation in comparison to the control group (impedance) (H1299 cells [5]; 1.39×10^−12 M ACPA (free or released from nanoparticles), 48 and 72nd hours, p<0.05): significant reduction has been observed
proliferation (normalized cell index) (H1299 cells [5]; 10^−11 M, as of the 66th hour, p<0.05): significantly reduced the proliferation of cells
proliferation (normalized cell index) (H1299 cells [5]; 10^−12, 10^−10 and 10^−9 M, after the 86th hour, p<0.05): significantly reduced the proliferation of cells
efficient dose, effect seen on the 48th hour (H1299 cells [5]; WST-1 and impedance analysis): 1.39 pM
proliferation (normalized cell index) (H1299 cells [5]; [10]): reduced the proliferation
IC50 (H1299 cells [5]; [11]): 1.39 pM
proliferation vs control group (WST-1) (H838 cells [6]; 2nd day, 10^−9 M): antiproliferative effect; also recorded: reduced the proliferation of H838 cells statistically significantly
proliferation vs control group (WST-1) (H838 cells [6]; 3rd day, 10^−9 and 10^−12 M): antiproliferative effect; also recorded: reduced the proliferation of H838 cells statistically significantly
proliferation (normalized cell index) (A549 cells [7]; ACPA 10^−9 to 10^−12 M): not exhibited a significant change
efficient dose, effect seen on the 48th hour (A549 cells [7]; WST-1 and impedance analysis): 1.39 pM
IC50 (A549 cells [7]; [11]): 1.39 pM
proliferation in comparison to the control group (impedance) (H838 cells [8]; 1.39×10^−12 M ACPA, 190th hour, p<0.05): statistically significant reduction
proliferation vs control group (normalized cell index) (H838 cells [8]; ACPA doses, following the 30th hour, p<0.05): significantly reduced the proliferation of cells
efficient dose, effect seen on the 48th hour (H838 cells [8]; WST-1 and impedance analysis): 34.7 pM
proliferation (normalized cell index) (H838 cells [8]; [10]): reduced the proliferation
IC50 (H838 cells [8]; [11]): 34.7 pM
dose range found to be efficient in WST-1 analysis [9]: 10^−12-10^−9 M
